In PubChem BioAssay (NCI):
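Cultured in 96-well plates, cells were exposed to test compound for 48 hours across five concentrations. GI50 is the concentration that inhibits growth by half. Definition used: TGI = concentration required for complete inhibition of growth.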

Legend:
Assay in all cases: DTP human tumour cell line panel, 48 h
CAKI-1 renal = tested on: CAKI-1 renal
HCT-15 colon = tested on: HCT-15 colon
MCF7 breast = tested on: MCF7 breast
MDA-N = tested on: MDA-N
NCI-H23 lung = tested on: NCI-H23 lung
SF-295 CNS = tested on: SF-295 CNS
SK-MEL-5 melanoma = tested on: SK-MEL-5 melanoma
SN12C renal = tested on: SN12C renal
SNB-19 CNS = tested on: SNB-19 CNS
T-47D breast = tested on: T-47D breast
UACC-257 melanoma = tested on: UACC-257 melanoma
UACC-62 melanoma = tested on: UACC-62 melanoma
SNB-75 CNS = tested on: SNB-75 CNS

Structure (SMILES)	TGI (CAKI-1 renal) [µM]	TGI (HCT-15 colon) [µM]	TGI (MCF7 breast) [µM]	TGI (MDA-N) [µM]	TGI (NCI-H23 lung) [µM]	TGI (SF-295 CNS) [µM]	TGI (SK-MEL-5 melanoma) [µM]	TGI (SN12C renal) [µM]	TGI (SNB-19 CNS) [µM]	TGI (T-47D breast) [µM]	TGI (UACC-257 melanoma) [µM]	TGI (UACC-62 melanoma) [µM]	TGI (SNB-75 CNS) [µM]	GI50 (CAKI-1 renal) [µM]	GI50 (NCI-H23 lung) [µM]	GI50 (SNB-19 CNS) [µM]	GI50 (UACC-257 melanoma) [µM]
COc1ccc2c(c1)/C(=C\c1c(Cl)[nH]c3ccccc13)C(=O)N2	27.1	37.2	13.7	3.83	25	6.26	14.8	24.7	19.3	> 100	20.4	20	–	–	–	–	–
COC(=O)c1cc(NC(=O)Cc2c[nH]c3ccccc23)cn1C	> 100	> 100	> 100	> 100	> 100	> 100	> 100	> 100	> 100	> 100	> 100	> 100	–	–	–	–	–
CSc1nc2c(c(=O)n1C)N=C(c1ccc([N+](=O)[O-])cc1)CC(c1ccccc1)N2 (stereo unspecified)	> 100	–	> 100	–	> 100	> 100	> 100	> 100	> 100	–	> 100	> 100	> 100	–	–	–	–
CCCc1cc(COC)c(C#N)c(=O)[nH]1	> 100	> 100	> 100	> 100	> 100	> 100	> 100	> 100	> 100	> 100	> 100	> 100	–	–	–	–	–
CC(C)C1NC(=O)CC(c2ccccc2)N(N=O)C1c1ccccc1 (stereo unspecified)	> 100	> 100	> 100	–	> 100	> 100	> 100	> 100	> 100	–	> 100	> 100	> 100	–	–	–	–
O=C1CC(CC(=O)c2ccc(Br)cc2)C(=O)/C1=C(/O)c1ccc(Br)cc1 (stereo unspecified)	> 100	> 100	> 100	> 100	> 100	> 100	> 100	> 100	> 100	> 100	> 100	> 100	–	–	–	–	–
CC(=O)NC(NCCN)(c1ccccc1)c1ccccc1	–	> 100	> 100	–	> 100	> 100	> 100	> 100	> 100	–	> 100	–	> 100	–	–	–	–
COc1cc(C2(c3ncc[nH]3)SSSCC2O)ccc1O (stereo unspecified)	> 100	> 100	> 100	–	> 100	> 100	> 100	> 100	> 100	–	28.5	> 51.2	> 100	–	–	–	–
Clc1ccc(CCN[C@H]2CCCC[C@H]2N2CCCC2)cc1Cl	> 100	49.5	35.7	38.5	58.8	30.2	28.5	54.3	69.5	–	28.5	34.9	–	–	–	–	–
CCOC(=O)c1c(NC(=S)Nc2ccc(Cl)cc2)sc2c1CCN(C)C2	> 100	> 100	> 100	> 100	> 100	> 100	> 100	> 100	> 100	> 100	> 100	> 100	–	–	–	–	–
Fc1ccc2c3c([nH]c2c1)CCN(Cc1ccccc1)C3	–	36.5	31.3	–	42.4	27.9	38.8	35.4	30.8	47.3	30.6	35.2	32.9	–	–	–	–
COc1ccc(OC)c2c1C=CC(Br)=CC2	0.913	0.485	> 1	0.529	> 1	0.373	> 1	> 1	> 1	0.681	0.942	0.345	–	–	–	–	–
OC(CN(CCCl)CCCl)C(O)C(O)C(O)CN(CCCl)CCCl (stereo unspecified)	> 100	> 100	> 100	–	> 100	–	> 100	> 100	> 100	> 100	> 100	> 100	–	–	–	–	–
CC(=O)O[C@H]1C(=O)[C@@]2(C)[C@H]([C@H](OC(=O)c3ccccc3)[C@]3(O)C[C@H](OC(=O)[C@H](O)[C@@H](NC(=O)c4ccco4)c4ccccc4)C(C)=C1C3(C)C)[C@]1(OC(C)=O)CO[C@@H]1C[C@@H]2O	> 12.5	> 12.5	> 12.5	–	> 12.5	> 12.5	> 12.5	–	> 12.5	> 12.5	–	> 12.5	–	–	–	–	–
C/C(=N\NC(=O)c1ccccc1O)c1cccc(/C(C)=N/NC(=O)c2ccccc2O)n1.O=S(=O)([O-])[O-].[Fe+2]	> 100	> 100	–	–	> 100	> 100	–	–	> 100	–	> 100	> 100	> 100	> 100	> 100	> 100	> 100
